In patent US20240124454A1, “TRICYCLIC COMPOUND AND USE THEREOF” (NANJING ZAIMING PHARMACEUTICAL CO., LTD., priority 2020, published 2024):
Read-outs that look alike come from different tables or passages of the source.

Biological target: MAT2A (Homo sapiens (Human), UniProt P31153)
Experiment: MAT2A biochemical test (inorganic phosphate colorimetric, PiColorLock)
Settings: read-out: MAT2A inhibitory Activity IC50
From the text: Test Example 1. Biochemical Test
The brief introduction of the test principle: L-methionine and ATP can be converted into SAM, inorganic phosphate, and inorganic diphosphate under the catalysis of MAT2A enzymes. The content of inorganic phosphate in the sample can be quantitatively determined by adding a developer such as ammonium molybdate or the like to the enzymatic reaction mixture, thereby reflecting the enzymatic activity of MAT2A.
Reference: The experiment referred to the method disclosed in patent WO2018045071.
Material: MAT2A screening kits were purchased from BPS bioscience (U.S.); 384-well plates were purchased from Corning Company (U.S.). • 1. MAT2A protein (Pharmaron Beijing Co., Ltd.); • 2. L-methionine (Sigma #M9625-5G) • 3. ATP (Sigma #A7699-1G) • 4. KCl (Sigma #60142-500ML-F) • 5. Tris (Sigma #T2663-1L) • 6. MgCl2 (Sigma #M1028) • 7. EDTA (Invitrogen #AM9260G) • 8. BSA (Sangon Biotech #A500023-0100) • 9. PiColorLock (abcam #ab270004)
Detection method: In the experimental group, the test compound was dissolved in DMSO, diluted to a final concentration of 10 μM using Echo, and diluted 3-fold. 80 nL of the dilution was transferred to a 384-well plate.
The experimental buffer (50 mM Tris, 50 mM KCl, 15 mM MgCl2, 100 μM EDTA, 0.005% BSA) was prepared. The MAT2A protein was diluted with the experimental buffer (at final concentration of […]). 40 μL of 2×MAT2A solution was added to the 384-well plate. The plate was centrifuged at 1000 rpm for 1 min and incubated at room temperature for 120 min.
L-methionine and ATP (the final concentration of L-methionine was […] and the final concentration of ATP was 400 μM) were diluted with the experimental buffer. 40 μL of 2×L-methionine and ATP solution was added to initiate the reaction. The plate was centrifuged at 1000 rpm for 1 min and incubated at room temperature for 90 min.
The PiColorLock™ reaction catalyst was mixed with the PiColorLock™ buffer at a ratio of 1:100 according to the instructions. 20 μL was added to each well, and the plate was shaken for 30 s. 8 μL stabilizing reagent was added, and the plate was shaken for 30 s. The signal values were measured after 30 min of incubation at room temperature.
A negative control group and a positive control group were respectively used as Bottom and Top. The negative control group was not added with MAT2A protein, and other operations were consistent with those of the experimental group. The positive control group was not added with the test compound, only added with DMSO in the same volume, and other operations were consistent with those of the experimental group.
The % Compound inhibition was calculated and fitted to give the IC50 of the compound.
% Compound inhibition=1-100%×(Signal−Bottom)/(Top−Bottom).
Signal referred to the signal value of the experimental group, Bottom referred to the average signal value of the negative control group, and Top referred to the average signal value of the positive control group.
Under the condition of this experiment, the inhibitory effect of the test compound on MAT2A can be expressed as the IC50 of the inhibition on the phosphate production level during the enzymatic reaction.

MAT2A, sequence (P31153 whole entry): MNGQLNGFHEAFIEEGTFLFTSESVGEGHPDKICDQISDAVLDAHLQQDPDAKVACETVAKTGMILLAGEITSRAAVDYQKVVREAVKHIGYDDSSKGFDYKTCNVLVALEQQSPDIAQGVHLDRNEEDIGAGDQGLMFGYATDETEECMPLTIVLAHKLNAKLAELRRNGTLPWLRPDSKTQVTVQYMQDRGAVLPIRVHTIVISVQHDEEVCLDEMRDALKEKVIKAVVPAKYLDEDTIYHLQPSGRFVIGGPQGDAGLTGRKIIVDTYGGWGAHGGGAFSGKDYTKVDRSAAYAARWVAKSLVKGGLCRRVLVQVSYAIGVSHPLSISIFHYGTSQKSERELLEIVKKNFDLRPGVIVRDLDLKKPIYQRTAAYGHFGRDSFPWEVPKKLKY

IC50 (class symbols)	IC50 (numeric values)	SMILES
0.5 to 1 µM	0.53 µM	CNCCn1cnc2c(=O)n(-c3ccccc3Cl)c3nc(C(F)(F)F)ccc3c21 [Compound 54, 5-(2-chlorophenyl)-1-(2-(methylamino)ethyl)-7-(trifluoromethyl)-1,5-dihydro-4H-imidazo[4,5-c][1,8]naphthyridin-4-one]
< 0.1 µM	0.0802 µM	Cn1cnc2c(=O)n(-c3cccc(F)c3F)c3nc(C(F)(F)F)ccc3c21 [Compound 78, 5-(2,3-difluorophenyl)-1-methyl-7-(trifluoromethyl)-1,5-dihydro-4H-imidazo[4,5-c][1,8]naphthyridin-4-one]
0.1 to 0.5 µM	0.102 µM	Cc1ncncc1-n1c(=O)c2ncn(C)c2c2ccc(C(F)(F)F)nc21 [Compound 79, 1-methyl-5-(4-methylpyrimidin-5-yl)-7-(trifluoromethyl)-1,5-dihydro-4H-imidazo[4,5-c][1,8]naphthyridin-4-one]
< 0.1 µM	0.0472 µM	Cn1cnc2c(=O)n(-c3cccc(C#N)c3)c3nc(C(F)(F)F)ccc3c21 [Compound 52, 3-(1-methyl-4-oxo-7-(trifluoromethyl)-1,4-dihydro-5H-imidazo[4,5-c][1,8]naphthyridin-5-yl)benzonitrile]
0.1 to 0.5 µM	0.113 µM	O=c1c2ncn(CCO)c2c2ccc(C(F)(F)F)nc2n1-c1ccccc1Cl [Compound 50, 5-(2-chlorophenyl)-1-(2-hydroxyethyl)-7-(trifluoromethyl)-1,5-dihydro-4H-imidazo[4,5-c][1,8]naphthyridin-4-one]
< 0.1 µM	0.0325 µM	C#Cc1cccc(-n2c(=O)c3ncn(C)c3c3ccc(C(F)(F)F)nc32)c1Cl (single isomer, unassigned) [Compound 80-P2, 5-(2-chloro-3-ethynylphenyl)-1-methyl-7-(trifluoromethyl)-1,5-dihydro-4H-imidazo[4,5-c][1,8]naphthyridin-4-one]
< 0.1 µM	0.0534 µM	Cn1cnc2c(=O)n(-c3cccnc3C(F)(F)F)c3cc(C(F)(F)F)ccc3c21 [Compound 84, 1-methyl-7-(trifluoromethyl)-5-(2-trifluoromethylpyridin-3-yl)-1,5-dihydro-4H-imidazo[4,5-c]quinolin-4-one]
< 0.1 µM	0.0717 µM	Cc1ncccc1-n1c(=O)c2ncn(C)c2c2cnc(C(F)(F)F)nc21 [Compound 75, 1-methyl-5-(2-methylpyridin-3-yl)-7-(trifluoromethyl)-1,5-dihydro-4H-imidazo[4′,5′:4,5]pyrido[2,3-d]pyrimidin-4-one]
0.5 to 1 µM	0.978 µM	Cn1cnc2c(=O)n(-c3ccc(OC(F)F)c(F)c3)c3nc(C(F)(F)F)ccc3c21 [Compound 71, 5-[4-(difluoromethoxy)-3-fluorophenyl]-1-methyl-7-(trifluoromethyl)-1,5-dihydro-4H-imidazo[4,5-c][1,8]naphthyridin-4-one]

Further lines, the compound ahead of its results:

SMILES	IC50 (class symbols)	IC50 (numeric values)
CCOc1ccc2c3cn(C)nc3c(=O)n(-c3ccc(OC(F)F)cc3)c2n1 [Compound 13, 5-(4-(difluoromethoxy)phenyl)-7-ethoxy-2-methyl-2,5-dihydro-4H-pyrazolo[3,4-c][1,8]naphthyridin-4-one]	0.1 to 0.5 µM	0.122 µM
CCOc1ccc2c3[nH]c(OC)nc3c(=O)n(-c3ccc(OC(F)F)cc3)c2n1 [Compound 11, 5-(4-(difluoromethoxy)phenyl)-7-ethoxy-2-methoxy-1,5-dihydro-4H-imidazo[4,5-c][1,8]naphthyridin-4-one]	< 0.1 µM	0.0566 µM
Cc1ccncc1-n1c(=O)c2ncn(C)c2c2ccc(C(F)(F)F)nc21 [Compound 28, 1-methyl-5-(4-methylpyridin-3-yl)-7-(trifluoromethyl)-1,5-dihydro-4H-imidazo[4,5-c][1,8]naphthyridin-4-one]	0.1 to 0.5 µM	0.165 µM
COc1ccccc1-n1c(=O)c2ncn(C)c2c2ccc(C(F)(F)F)nc21 [Compound 33, 5-(2-methoxyphenyl)-1-methyl-7-(trifluoromethyl)-1,5-dihydro-4H-imidazo[4,5-c][1,8]naphthyridin-4-one]	< 0.1 µM	0.0676 µM
Cc1ncccc1-n1c(=O)c2ncn(Cc3cnn(C)c3)c2c2ccc(C(F)(F)F)nc21 [Compound 74, 1-((1-methyl-1H-pyrazol-4-yl)methyl)-5-(2-methylpyridin-3-yl)-7-(trifluoromethyl)-1,5-dihydro-4H-imidazo[4,5-c][1,8]naphthyridin-4-one]	0.1 to 0.5 µM	0.14 µM
CC(C)c1ccccc1-n1c(=O)c2ncn(C)c2c2ccc(C(F)(F)F)nc21 [Compound 34, 5-(2-isopropylphenyl)-1-methyl-7-(trifluoromethyl)-1,5-dihydro-4H-imidazo[4,5-c][1,8]naphthyridin-4-one]	< 0.1 µM	0.0731 µM
Cn1cnc2c(=O)n(-c3ccc(Cl)cc3Cl)c3nc(C(F)(F)F)ccc3c21 [Compound 62, 5-(2,4-dichlorophenyl)-1-methyl-7-(trifluoromethyl)-1,5-dihydro-4H-imidazo[4,5-c][1,8]naphthyridin-4-one]	0.1 to 0.5 µM	0.251 µM
CCOc1ccc2c3[nH]c(=O)[nH]c3c(=O)n(-c3ccc(OC(F)F)cc3)c2n1 [Compound 10, 5-(4-(difluoromethoxy)phenyl)-7-ethoxy-3,5-dihydro-1H-imidazo[4,5-c][1,8]naphthyridine-2,4-dione]	< 0.1 µM	0.033 µM
CCn1cnc2c(=O)n(-c3ccccc3Cl)c3nc(C(F)(F)F)ccc3c21 [Compound 61, 5-(2-chlorophenyl)-1-ethyl-7-(trifluoromethyl)-1,5-dihydro-4H-imidazo[4,5-c][1,8]naphthyridin-4-one]	0.1 to 0.5 µM	0.102 µM
Cc1cnccc1-n1c(=O)c2ncn(C)c2c2ccc(C(F)(F)F)nc21 [Compound 27, 1-methyl-5-(3-methylpyridin-4-yl)-7-(trifluoromethyl)-1,5-dihydro-4H-imidazo[4,5-c][1,8]naphthyridin-4-one]	0.5 to 1 µM	0.819 µM
Cn1cnc2c(=O)n(-c3ccccc3)c3nc(C(F)(F)F)ccc3c21 [Compound 21, 1-methyl-5-phenyl-7-(trifluoromethyl)-1,5-dihydro-4H-imidazo[4,5-c][1,8]naphthyridin-4-one]	< 0.1 µM	0.0649 µM
COc1ccc(-n2c(=O)c3ncn(C)c3c3ccc(C(F)(F)F)nc32)cc1 [Compound 59, 5-(4-methoxyphenyl)-1-methyl-7-(trifluoromethyl)-1,5-dihydro-4H-imidazo[4,5-c][1,8]naphthyridin-4-one]	0.1 to 0.5 µM	0.252 µM
Cn1nccc1-n1c(=O)c2ncn(C)c2c2ccc(C(F)(F)F)nc21 [Compound 60, 1-methyl-5-(1-methyl-1H-pyrazol-5-yl)-7-(trifluoromethyl)-1,5-dihydro-4H-imidazo[4,5-c][1,8]naphthyridin-4(5H)-one]	0.1 to 0.5 µM	
O=c1c2cn[nH]c2c2ccc(C(F)(F)F)nc2n1-c1ccccc1Cl [Compound 7, 5-(2-chlorophenyl)-7-(trifluoromethyl)-1,5-dihydro-4H-pyrazolo[4,3-c][1,8]naphthyridin-4-one]	0.1 to 0.5 µM	0.128 µM
Cn1cnc2c(=O)n(-c3ccc(Cl)cc3)c3nc(C(F)(F)F)ccc3c21 [Compound 19, 5-(4-chlorophenyl)-1-methyl-7-(trifluoromethyl)-1,5-dihydro-4H-imidazo[4,5-c][1,8]naphthyridin-4-one]	< 0.1 µM	0.0514 µM
